The test system of experiment [1] is HCT-116. Kind of experiment: Cytotoxicity against human HCT116 cells. The format is functional, cell-based.
Experiment [2] concerns Candida albicans. Kind of experiment: Antifungal activity against Candida albicans. It counts as functional.
Experiment [3] concerns Staphylococcus aureus. Put plainly: Antibacterial activity against methicillin-resistant Staphylococcus aureus. The format is functional, organism-based.

Converted amounts (≈) assume the structure as drawn. The source made the active and inactive calls. The calls are words filed in the database; no cut-off is given here.

As to `CC(C)C/C=C/C=C/C(N)=O`, the 50% inhibitory concentration (IC50) (usually the concentration needed to halve the response being measured) in experiment [1] stood at 21.7 µg/mL (≈ 142 µM). Also, the result in experiment [2] and in experiment [3] was inactive.
Regarding `CC(C)C/C=C/C=C/C(=O)NC1=C[C@@](O)(CCC(N)=O)[C@H](O)CC1=O` [DARYAMIDE A], the IC50 in experiment [1] turned out to be 3.15 µg/mL (≈ 8.99 µM). Further, 62.5 µg/mL (≈ 178 µM) was the least that counted as inhibitory in experiment [2] (MIC). Also, the outcome in experiment [3] was inactive.
Taken in the same sequence, the figures for `CC(C)C/C=C/C=C/C(=O)NC1=CC(O)(CCC(N)=O)C=CC1=O` (configuration not stated) [DARYAMIDE B] were 9.99 µg/mL (≈ 30.1 µM), 125 µg/mL (≈ 376 µM) and “inactive”.
In experiment [1], `CC(C)/C=C/C=C/C(=O)NC1=CC(O)(CCC(N)=O)C=CC1=O` (configuration not stated) [DARYAMIDE C] registered an IC50 of 10 µg/mL (≈ 31.5 µM). In addition, the outcome in experiment [2] and in experiment [3] was inactive.

For the origin of these results see ChEMBL document CHEMBL1158131, “Daryamides A-C, weakly cytotoxic polyketides from a marine-derived actinomycete of the genus Streptomyces strain CNQ-085” (J Nat Prod, 2006).
